The values below come from patent publication US20220275376A1, “TARGETING SLC38A2 IN PANCREATIC CANCER” (New York University, priority 2019, published 2022).

Data set [1] deals with PANC1 cells. In words: Intracellular alanine levels in drug-treated PANC1 cells (GC-MS). In kind it is cell-based, human. To be noted: 24 hours, PXT 10 μM, DPM 10, racemic FLX 10 or 25 μM, vs vehicle (DMSO). The method, then: (A) Western blot depicting SLC38A2 levels in PANC1 cells engineered to express SLC38A2 under control of doxycycline. Withdrawal of doxycycline results in a significant depletion in SLC38A2 levels after 24 hours.
Fluvoxamine (FVX), fluoxetine (FLX), paroxetine (PXT), sertindole (SND), and blonanserin (BNS) were acquired from Cayman Chemicals. Desipramine (DPM), α-(Methylamino) isobutyric acid (MeAIB), and L-alanine were acquired from Sigma. Stocks were prepared at 10 mM or 7.5 mM (BNS) in DMSO. Cells were treated with vehicle (DMSO) or varying concentrations of drug for indicated time. Conditioned media was collected and centrifuged at 1,000×g to remove cell debris followed by extraction of metabolites. For metabolite extraction, cells were first washed with ice cold 0.9% NaCl to remove media contamination followed by addition of 500 μL methanol (−20° C.) and 200 μL HPLC grade water (4° C.). Cells were scraped and pipeted into glass vials containing 500 μL chloroform (4° C.) and vortexed at 4° C. for 10-15 minutes. Aqueous and inorganic layers were separated by cold centrifugation for 15 minutes. 300 μL of the aqueous layer containing polar metabolites was transferred to sample vials (Agilent 5190-2243) and evaporated using a SpeedVac (Savant Thermo SPD111V). Dried samples were stored at −20° C. and re-evaporated for 5-10 minutes prior to derivatization and GC-MS analysis.

Data set [2] deals with T1, SLC38A2 (Homo sapiens, UniProt Q96QD8).
T1 construct: expressed in transfected cells; host or cells: HY15549 cells with dox-inducible SNAT2
T1 sequence (Q96QD8 1-506): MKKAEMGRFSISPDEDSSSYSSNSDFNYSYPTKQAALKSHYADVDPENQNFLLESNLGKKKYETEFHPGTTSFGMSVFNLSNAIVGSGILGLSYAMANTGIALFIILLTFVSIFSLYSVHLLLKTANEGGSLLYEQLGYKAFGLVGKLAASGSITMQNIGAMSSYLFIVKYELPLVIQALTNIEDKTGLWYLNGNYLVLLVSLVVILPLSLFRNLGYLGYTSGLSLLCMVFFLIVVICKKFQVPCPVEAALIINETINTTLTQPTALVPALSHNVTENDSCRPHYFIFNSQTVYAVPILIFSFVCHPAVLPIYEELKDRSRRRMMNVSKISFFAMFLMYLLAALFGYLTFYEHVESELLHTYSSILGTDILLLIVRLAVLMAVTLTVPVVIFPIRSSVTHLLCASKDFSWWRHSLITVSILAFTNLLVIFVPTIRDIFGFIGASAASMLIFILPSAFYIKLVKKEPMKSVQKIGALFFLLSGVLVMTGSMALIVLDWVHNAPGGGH
As to the kind of experiment: SLC38A2 activity measured by MeAIB uptake in HY15549 dox-inducible SNAT2 cells. In kind it is cell-based. Particulars: for inhibition of MeAIB uptake (intracellular MeAIB levels): 20 μm compound, MeAIB 0.3 mM, 1 hour, vs vehicle (PBS), HY15549 cells expressing dox-inducible SLC38A2/SNAT2. The procedure: (A) Schematic depicting SLC38A2-dependent update of alanine structural analog, methyl α-aminoisobutyrate (MeAIB). […] (B) Total ion chromatogram (TIC) of HY15549 dox-inducible SNAT2 cells treated with 1 mM MeAIB for 24 hours compared to vehicle (PBS). […] HY15549 dox-inducible SNAT2 cells were cultured with a concentration gradient of MeAIB for 15 minutes (gray circles) or 60 minutes (black squares). (D) Western blot depicting SLC38A2 expression relative to doxycycline after 24 hours culture in HY15549 dox-inducible SNAT2 cells. (E) Intracellular MeAIB levels in HY15549 dox-inducible cells cultured with dox (+SNAT2, left bar) and without dox (KO, right bar) for 24 hours with 1 mM MeAIB. (F) Intracellular MeAIB levels in HY15549 dox-inducible cells cultured with vehicle, paroxetine (PXT, 20 μM), or sertraline (SRT, 20 μm) for 24 hours with 300 μM MeAIB.

In data set [3] the test system is HY19636 cells. As to the kind of experiment: Orthotopic syngeneic allograft, HY19636 cells. Type of data set: in vivo, C57BL/6J mice. Particulars: HY19636 (2.5×10^4) pooled SLC38A2-deficient cells vs sgTom, 27 days. The procedure:
(§1) (A) SLC38A2 staining in pancreatic tumors derived from the KPC (LSL-Kras^G12D; Trp53^lox/+; p48Cre+) mouse model and normal murine pancreas. Representative fields from KPC (4×, left) and normal pancreas (10×, right) are depicted with scale bars. Arrows indicate instances of punctate SLC38A2 in normal pancreas (right). (B) Representative live cell images of HY19636 (left) and mPSC #1 (right) cells transiently transfected with 3 μg of SLC38A2-GFP (green) overnight and stained with MitoTracker (red) to visualize individual cells; scale bars are indicated in figures. […] Subcutaneous tumors were monitored bi-weekly by caliper measurement and considered formed if length and width were measured to be ≥1 mm each. […] Orthotopic xenografts were monitored by 3-D ultrasound bi-weekly and considered tumors if volume ≥1 mm^3. […] HY19636 (2.5×10^4) or PANC1 (5×10^5) control (sgTom) or pooled SLC38A2-deficient (sgSLC38A2 #1, #3) cells were injected orthotopically, and tumors were weighed following resection after 27 days (HY19636) or 63 days (PANC1). Error bars depict s.e.m. of tumors resected from 9-10 mice.
For orthotopic xenograft experiments, PANC1 cells were infected with lentiviral shRNAs or sgRNAs targeting SLC38A2 or GFP/Tomato as a control and selected with puromycin (2 μg/mL) for three days. […]

Data set [4] relates to PANC1 cells. In words: Orthotopic xenograft, PANC1 cells. To be noted: for tumor burden (tumor weight after resection): PANC1 (5×10^5) pooled SLC38A2-deficient cells vs sgTom, 63 days; for tumor initiation: SLC38A2 knockdown PANC1 cells (5×10^5), orthotopic, vs shGFP, 3-D ultrasound, tumor if volume ≥1 mm^3. In kind it is in vivo, NCr nude mice. The procedure:
as §1
For orthotopic xenograft experiments, PANC1 cells were infected with lentiviral shRNAs or sgRNAs targeting SLC38A2 or GFP/Tomato as a control and selected with puromycin (2 μg/mL) for three days. For syngeneic orthotopic allograft studies, HY19636 cells were infected with lentiviral sgRNAs targeting SLC38A2 or Tomato and selected with puromycin (2 μg/mL) for three days. 500,000 PANC1 cells or […] HY19636 cells were resuspended in 10 μl HBSS and 10 μl growth factor-reduced matrigel (Corning 356231) per injection and kept on ice. Female 7-8 week old NCr nude or C57BL/6J mice were used for xenograft and allograft experiments, respectively. An incision was made near the spleen which was gently removed from the peritoneal space to expose the pancreas. The 20 μL cell:matrigel suspension was slowly injected into the tail of the exposed pancreas using either a Hamilton or insulin syringe (BD 324702). After injection, the needle was held in place by tweezers briefly to allow the matrigel to polymerize before gently removing the needle and re-introducing the spleen and pancreas into the animal. The peritoneum was sutured and the wound was closed with surgical staples. Buprenorphine was administered by intraperitoneal injection and immediately after surgery and every 12 hours for 48 hours.
After injection, all mice were allowed to recover from surgery for five days before screening for tumor initiation by non-invasive 3-D ultrasound imaging (VisualSonics Vevo 770) twice a week under anesthesia using 1-3% isoflurane via nose cone. Tumor initiation was considered if volume ≥1 mm^3 and sustained or increased in volume over the course of the experiment. […]

In data set [5] the test system is PANC1 cells. As to the kind of experiment: Subcutaneous xenograft tumor initiation, PANC1 cells co-injected with hPSC #1 cells. Type of data set: in vivo, NCr nude mice. Particulars: SLC38A2 knockdown PANC1 cells (2×10^5) co-injected with hPSC #1 cells (1×10^6), vs shGFP; tumor if length and width ≥1 mm. The procedure:
(A) SLC38A2 staining in pancreatic tumors derived from the KPC (LSL-Kras^G12D; Trp53^lox/+; p48Cre+) mouse model and normal murine pancreas. Representative fields from KPC (4×, left) and normal pancreas (10×, right) are depicted with scale bars. Arrows indicate instances of punctate SLC38A2 in normal pancreas (right). (B) Representative live cell images of HY19636 (left) and mPSC #1 (right) cells transiently transfected with 3 μg of SLC38A2-GFP (green) overnight and stained with MitoTracker (red) to visualize individual cells; scale bars are indicated in figures. […] Subcutaneous tumors were monitored bi-weekly by caliper measurement and considered formed if length and width were measured to be ≥1 mm each. […] Orthotopic xenografts were monitored by 3-D ultrasound bi-weekly and considered tumors if volume ≥1 mm^3. […]
For subcutaneous co-injection tumor initiation studies, PANC1 cells were infected with lentiviral shRNAs targeting SLC38A2 or GFP as a control shRNA and selected with puromycin (2 μg/mL) for three days. […] Tumor initiation was monitored two to three times per week by caliper measurement. Tumor initiation was considered if length and width were measured to be ≥1 mm each.

With `CNCCC(Oc1ccc(C(F)(F)F)cc1)c1ccccc1` (racemic) [fluoxetine], the “reduction of intracellular alanine levels” value (shortened to “reduction”) in data set [1] is approximately 50%.

Take `CNC(C)(C)C(=O)O` [MeAIB, α-(Methylamino) isobutyric acid]: in data set [2] (HY15549 dox-inducible SNAT2 cells, MeAIB concentration gradient, 15 or 60 minutes, read-out: Km of MeAIB uptake (Michaelis-Menten kinetics)), the Km is approximately 3.5 mM.

Turning to `CNCCCN1c2ccccc2CCc2ccccc21` [desipramine], the “reduction” value in data set [1] is reported as approximately 50%.

For `Fc1ccc([C@@H]2CCNC[C@H]2COc2ccc3c(c2)OCO3)cc1` [paroxetine], in data set [2], the “inhibition of MeAIB uptake (intracellular MeAIB levels)” value is “inhibited”. The “reduction” value in data set [1] is on record as approximately 50%.

In the case of `CN[C@H]1CC[C@@H](c2ccc(Cl)c(Cl)c2)c2ccccc21` [sertraline], the “inhibition of MeAIB uptake (intracellular MeAIB levels)” value in data set [2] was “inhibited”.

Regarding “sgSLC38A2 #1: CRISPR sgRNA targeting SLC38A2, TAATCTGAGCAATGCGATTG (SEQ ID NO:7) (expressed or natural sequence)”, the “tumor burden (tumor weight after resection)” value in data set [3] and in data set [4] was “significantly reduced tumor burden” each time.

“sgSLC38A2 #3: CRISPR sgRNA targeting SLC38A2, TCTTATGCCATGGCTAATAC (SEQ ID NO:8) (expressed or natural sequence)”: the “tumor burden (tumor weight after resection)” value in data set [3] and in data set [4] was “significantly reduced tumor burden” throughout.

Take “shSLC38A2 #1: lentiviral shRNA targeting SLC38A2, GGAGAAGATACTGTGGCAA (SEQ ID NO:2), TRCN0000020243”: the tumor initiation entry in data set [4] and in data set [5] was “significantly suppressed” each time.

As for “shSLC38A2 #4: lentiviral shRNA targeting SLC38A2, GAATACCAAGAGTTGTTTCTA (SEQ ID NO:3), TRCN0000020241”, the tumor initiation entry in data set [4] and in data set [5] was “significantly suppressed” in each case.
